Laboratory results: patent US5688946A, “Amino acid derivatives having renin inhibiting activity” (Hoffmann La Roche Inc., priority 1989, dated 1997)
pIC50: −log10 of the molar value. Where a name gives a salt, the structure may show the parent alone.

molecular target: T1, human renin (Homo sapiens, UniProt P00797); assay: In vitro test with pure human renin; type: biochemical; conditions: human tetradecapeptide renin substrate (hTD), pH 7.4, three hours at 37° C., angiotensin I via RIA
T1 sequence (P00797 67-406): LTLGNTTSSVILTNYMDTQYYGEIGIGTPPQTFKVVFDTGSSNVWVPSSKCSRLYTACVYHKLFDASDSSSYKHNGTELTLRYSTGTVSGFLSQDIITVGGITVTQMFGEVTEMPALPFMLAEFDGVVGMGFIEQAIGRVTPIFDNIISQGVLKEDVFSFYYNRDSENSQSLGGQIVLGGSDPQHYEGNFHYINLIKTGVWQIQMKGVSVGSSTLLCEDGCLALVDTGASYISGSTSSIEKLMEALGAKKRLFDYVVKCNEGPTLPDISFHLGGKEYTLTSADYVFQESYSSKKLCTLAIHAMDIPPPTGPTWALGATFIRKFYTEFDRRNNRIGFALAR
Procedure: In vitro test with pure human renin
The test is carried out in Eppendorf test tubes. The incubation mixture consists of (1) 100 μl of human renin in buffer A (0.1M sodium phosphate solution, pH 7.4, containing 0.1% bovine serum albumin, 0.1% sodium azide and 1 mM ethylenediaminetetraacetic acid), sufficient for a renin activity of 2-3 ng of angiotensin I/ml/hr.; (2) 145 μl of buffer A; (3) 30 μl of 10 μM human tetradecapeptide renin substrate (hTD) in 10 mM hydrochloric acid; (4) 15 μl of dimethyl sulphoxide with or without inhibitor and (5) 10 μl of a 0.03 molar solution of hydroxyquinoline sulphate in water.
The samples are incubated for three hours at 37° C. or 4° C. in triplicate. 2×100 μl samples per experimental test tube are used in order to measure the production of angiotensin I via RIA (standard radioimmunoassay; clinical assay solid phase kit). Cross reactivities of the antibody used in the RIA are: angiotensin I 100%; angiotensin II 0.0013%; hTD (angiotensin I-Val-Ile-His-Ser-OH) 0.09%. The production of angiotensin I is determined by the difference between the experiment at 37° C. and that at 4° C.
The following controls are carried out:
(a) Incubation of hTD samples without renin and without inhibitor at 37° C. and 4° C. The difference between these two values gives the base value of the angiotensin I production.
(b) Incubation of hTD samples with renin, but without inhibitor at 37° C. and 4° C. The difference between these values gives the maximal value of angiotensin I production.
In each sample the base value of the angiotensin I production is subtracted from the angiotensin I production which is determined. The difference between the maximal value and the base value gives the value of the maximal substrate hydrolysis (=100%) by renin.
The results are given as IC50 values which denote that concentration of the inhibitor at which the enzymatic activity is inhibited by 50%. The IC50 values are determined from a linear regression curve from a logit-log plot.

Going from `CC(C)(CN)S(=O)(=O)C[C@@H](Cc1ccccc1)C(=O)N[C@@H](Cc1c[nH]cn1)C(=O)N[C@@H](CC1CCCCC1)[C@@H](O)[C@@H](O)C1CC1` [A, (S)-α-[(S)-α-[[[(2-Amino-1,1-dimethylethyl)sulphonyl]methyl]hydrocinnamamido]-N-[(1S,2R,3S)-1-(cyclohexylmethyl)-3-cyclopropyl-2,3-dihydroxypropyl]imidazole-4-propionamidedihydrochloride] to `CC(C)(N)CS(=O)(=O)C[C@@H](Cc1ccccc1)C(=O)N[C@@H](Cc1c[nH]cn1)C(=O)N[C@@H](CC1CCCCC1)[C@@H](O)[C@@H](O)C1CC1` [B, (S)-α-[(S)-α-[[(2-Amino-2-methylpropyl)sulphonyl]methyl]hydrocinnamamido]-N-[(1S,2R,3S)-1-(cyclohexylmethyl)-3-cyclopropyl-2,3-dihydroxypropyl]imidazole-4-propionamide diacetate], the pIC50 falls from 8.74 to 7.77 (0.97 log units). The first is the more potent here.

First: O=C(N[C@@H](CC1CCCCC1)[C@@H](O)[C@@H](O)C1CC1)[C@H](Cc1c[nH]cn1)NC(=O)[C@H](Cc1ccccc1)OC(=O)N1CCCCC1 [D, (S)-α-[[(S)-1-[[(1S,2R,3S)-1-(Cyclohexylmethyl)-3-cyclopropyl-2,3-dihydroxypropyl]carbamoyl]-2-imidazol-4-ylethyl]carbamoyl]phenethyl 1-piperidinecarboxylate]
Second: CC(C)(C)S(=O)(=O)C[C@@H](Cc1ccccc1)C(=O)N[C@@H](Cc1c[nH]cn1)C(=O)N[C@@H](CC1CCCCC1)[C@@H](O)[C@@H](F)C1CC1 [E, (S)-α-[(S)-α-[(tert-Butylsulphonyl)methyl]hydrocinnamamido]-N-[(1S,2R,3S)-1-(cyclohexylmethyl)-3-cyclopropyl-3-fluoro-2-hydroxypropyl]imidazole-4-propionamide]
The pIC50 of the first is 0.28 log units higher: 8.92 for the first, 8.64 for the second. The first is the more potent here.

Work on `O=C(N[C@@H](Cc1c[nH]cn1)C(=O)N[C@@H](CC1CCCCC1)[C@@H](O)[C@@H](O)C1CC1)c1cc2ccccc2[nH]1` [F, N-[(S)-1-[[(1S,2R,3S)-1-(Cyclohexylmethyl)-3-cyclopropyl-2,3-dihydroxypropyl]carbamoyl]-2-imidazol-4-ylethyl]indole-2-carboxamide] yielded a pIC50 of 7.68.
